Measured values from ChEMBL document CHEMBL1146806, “Halothiophene benzimidazoles as P1 surrogates of inhibitors of blood coagulation factor Xa” (Bioorg Med Chem Lett, 2004).
pIC50: −log10 of the molar value.

Key:
[1] = Oral bioavailability in rat; assay type: ADME, organism-based; settings: in vivo
[2] = target: Trypsin (Homo sapiens, UniProt P07477+P07478+P35030); test: Binding affinity against human trypsin; assay type: protein assay
[3] = Oral bioavailability in dog; assay type: ADME, organism-based, Canis lupus familiaris; settings: in vivo
[4] = Solubility in pH 7.0 phosphate buffer; assay type: physicochemical
[5] = target: Prothrombin (Homo sapiens, UniProt P00734); test: Binding affinity against human thrombin.
[6] = target: Coagulation factor X (Homo sapiens, UniProt P00742); test: Binding affinity of the compoumd to human coagulation factor Xa
Coagulation factor X, sequence (P00742 41-179 limits assumed): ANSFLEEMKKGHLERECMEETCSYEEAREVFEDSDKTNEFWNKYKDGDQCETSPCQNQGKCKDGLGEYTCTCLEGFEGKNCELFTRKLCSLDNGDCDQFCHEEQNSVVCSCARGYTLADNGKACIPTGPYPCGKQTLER
Coagulation factor X, sequence (P00742 235-488 limits assumed): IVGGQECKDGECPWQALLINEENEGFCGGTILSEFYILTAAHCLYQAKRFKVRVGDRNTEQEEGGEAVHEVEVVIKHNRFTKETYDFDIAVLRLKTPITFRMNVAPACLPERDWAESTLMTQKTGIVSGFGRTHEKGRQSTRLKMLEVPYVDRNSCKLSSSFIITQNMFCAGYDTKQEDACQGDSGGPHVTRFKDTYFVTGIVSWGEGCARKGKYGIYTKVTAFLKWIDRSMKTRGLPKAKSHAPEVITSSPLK

[7] = target: Serine protease 1 (Homo sapiens, UniProt P07477); test: Binding affinity of the compoumd against human trypsin was determined
Serine protease 1, sequence (P07477 whole entry): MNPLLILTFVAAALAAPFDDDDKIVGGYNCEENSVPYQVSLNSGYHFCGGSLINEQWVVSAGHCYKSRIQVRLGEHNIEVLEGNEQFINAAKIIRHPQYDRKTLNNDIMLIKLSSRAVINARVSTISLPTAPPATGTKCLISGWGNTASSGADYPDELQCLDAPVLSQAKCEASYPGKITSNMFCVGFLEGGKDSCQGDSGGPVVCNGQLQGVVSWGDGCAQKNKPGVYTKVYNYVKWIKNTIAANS

Structure (SMILES)	bioavailability [1]	IC50 [2]	bioavailability [3]	solubility [4]	pIC50 [5]	pIC50 [6]	pIC50 [7]
Cc1cc(NC(=O)COc2ccc3[nH]c(-c4ccc(Cl)s4)nc3c2)ccc1N1CCOCC1=O	< 20%	> 10 µM	< 20%	< 10 µg/mL	< 5.00	7.70	–
Cc1cc(NC(=O)Cc2ccc3[nH]c(-c4ccc(Cl)s4)nc3c2)ccc1-n1ccccc1=O	< 20%	–	< 20%	< 10 µg/mL	–	6.74	–
Cc1cc(NC(=O)Cc2ccc3[nH]c(-c4ccc(Cl)s4)nc3c2)ccc1N1CCOCC1=O	< 20%	–	< 20%	< 10 µg/mL	–	–	–
O=C(Cc1ccc2[nH]c(-c3ccc(Cl)s3)nc2c1)NCC1CCN(c2ccncc2)CC1	< 20%	> 10 µM	< 20%	< 10 µg/mL	< 5.00	7.85	–
O=C(CCc1ccc2nc(-c3ccc(Br)s3)[nH]c2c1)NCC1CCN(c2ccncc2)CC1	< 20%	–	< 20%	< 10 µg/mL	–	7.24	–
O=C(Cc1ccc2[nH]c(-c3ccc(Cl)s3)nc2c1)NCc1ccc(N2CCOCC2=O)cc1	< 20%	–	< 20%	< 10 µg/mL	–	6.77	–
O=C(Nc1ccc(N2CCOCC2=O)cc1)c1ccc2[nH]c(-c3ccc(Cl)s3)nc2c1	< 20%	> 10 µM	< 20%	< 10 µg/mL	< 5.00	–	–
CS(=O)(=O)c1ccccc1-c1ccc(NC(=O)Cc2ccc3[nH]c(-c4ccc(Cl)s4)nc3c2)cc1	< 20%	> 10 µM	< 20%	< 10 µg/mL	< 5.00	–	–
O=C(Cc1ccc2[nH]c(-c3ccc(Cl)s3)nc2c1)Nc1ccc(N2CCCCC2=O)cc1	< 20%	> 10 µM	< 20%	< 10 µg/mL	< 5.00	6.59	–
O=C(Cc1ccc(N2CCOCC2=O)cc1)Nc1ccc2[nH]c(-c3ccc(Cl)s3)nc2c1	< 20%	> 10 µM	< 20%	< 10 µg/mL	< 5.00	5.92	–
O=C(CCc1ccc2[nH]c(-c3ccc(Cl)s3)nc2c1)Nc1ccc(-n2ccccc2=O)c(F)c1	< 20%	–	< 20%	< 10 µg/mL	< 5.00	8.12	< 5.00
O=C(CCc1ccc2[nH]c(-c3ccc(Cl)s3)nc2c1)Nc1ccc(N2CCOCC2=O)c(Cl)c1	< 20%	–	< 20%	< 10 µg/mL	< 5.00	8.15	< 5.00
O=C(Cc1ccc2[nH]c(-c3ccc(Br)s3)nc2c1)Nc1ccc(-n2ccccc2=O)cc1	< 20%	> 10 µM	< 20%	< 10 µg/mL	< 5.00	7.20	–
O=C(CCc1ccc2[nH]c(-c3ccc(Cl)s3)nc2c1)Nc1ccc(N2CCOCC2=O)cc1	< 20%	–	< 20%	< 10 µg/mL	–	–	–
O=C(NCc1ccc2[nH]c(-c3ccc(Cl)s3)nc2c1)c1ccc(N2CCOCC2=O)cc1	< 20%	> 10 µM	< 20%	< 10 µg/mL	< 5.00	6.36	–
CC1CC(=O)NN=C1c1ccc2[nH]c(-c3ccc(Br)s3)nc2c1 (centres undefined)	< 20%	–	< 20%	< 10 µg/mL	< 5.00	6.01	< 5.00
O=C(COc1ccc2[nH]c(-c3ccc(Cl)s3)nc2c1)Nc1ccc(N2CCOCC2=O)cc1	< 20%	–	< 20%	< 10 µg/mL	–	6.82	–
CCC[C@@H](NC(=O)Nc1ccc(Cl)cc1)C(=O)Nc1ccc(N2CCOCC2=O)cc1	< 20%	–	< 20%	< 10 µg/mL	< 5.00	–	< 5.00
O=C(CNC(=O)Nc1ccc(Cl)cc1)Nc1ccc(N2CCOCC2=O)cc1	< 20%	–	< 20%	< 10 µg/mL	< 5.00	7.49	< 5.00
O=C(Cc1ccc2[nH]c(-c3ccc(Br)s3)nc2c1)NCC1CCN(c2ccncc2)CC1	< 20%	> 10 µM	< 20%	< 10 µg/mL	< 5.00	8.28	–
O=C(Cc1ccc2[nH]c(-c3ccc(Cl)s3)nc2c1)Nc1ccc(N2CCCC2=O)cc1	< 20%	> 10 µM	< 20%	< 10 µg/mL	< 5.00	6.28	–
Cc1cc(NC(=O)Cc2ccc3[nH]c(-c4ccc(Br)s4)nc3c2)ccc1N1CCOCC1=O	< 20%	–	< 20%	< 10 µg/mL	–	7.39	–
O=C(CCc1ccc2nc(-c3ccc(Cl)s3)[nH]c2c1)Nc1ccc(N2CCOCC2=O)cc1F	< 20%	–	< 20%	< 10 µg/mL	< 5.00	–	< 5.00
N=C(N)c1cccc(N[C@H](C(=O)Nc2ccc(N3CCCCC3=O)cc2)c2ccccc2)c1	< 20%	–	< 20%	< 10 µg/mL	–	7.82	–
O=C(Cc1ccc2[nH]c(-c3ccc(Cl)s3)nc2c1)Nc1ccc(N2CCOCC2=O)cc1	< 20%	> 10 µM	< 20%	< 10 µg/mL	< 5.00	–	–
CC1CC(=O)NN=C1c1ccc2[nH]c(-c3ccc(Cl)s3)nc2c1 (centres undefined)	< 20%	> 10 µM	< 20%	< 10 µg/mL	< 5.00	–	–
Cc1cc(NC(=O)CCc2ccc3[nH]c(-c4ccc(Br)s4)nc3c2)ccc1N1CCOCC1=O	< 20%	> 10 µM	< 20%	< 10 µg/mL	< 5.00	8.08	–
Cc1cc(NC(=O)CCc2ccc3[nH]c(-c4ccc(Cl)s4)nc3c2)ccc1N1CCOCC1=O	< 20%	> 10 µM	< 20%	< 10 µg/mL	< 5.00	8.09	–
